For five compounds, Drug uptake and IC50 results are on record in ChEMBL document CHEMBL1759926, “Exploring new near-infrared fluorescent disulfide-based cyclic RGD peptide analogs for potential integrin-targeted optical imaging” (Bioorg Med Chem Lett, 2011).

Bridge positions count the residues as written; N and C are the ends. Peptide text beside a SMILES is read from it. * marks the point of attachment. Cypate = CC1(C)C(/C=C/C=C/C=C/C=C2/N(CCC(=O)*)c3ccc4ccccc4c3C2(C)C)=[N+](CCC(=O)O)c2ccc3ccccc3c21 A value given as a limit tells only on which side of the number the result lay.

By IC50 is commonly meant the concentration that gives 50% inhibition. Higher therefore signals a need for much substance.

One data set relates to A549. Kind of data set: Drug uptake in human A549 cells overexpressing […] integrin at 1 uM after 4 to 24 hrs by fluorescence microscopy. Format: ADME, cell-based. Conditions: a549, 1 µM; call rule not given here.
As for `CC1(C)C(/C=C/C=C/C=C/C=C2/N(CCC(=O)N[C@H]3CSSC[C@@H](C(N)=O)NC(=O)[C@H](CC(=O)O)NC(=O)CNC(=O)[C@H](CCCNC(=N)N)NC3=O)c3ccc4ccccc4c3C2(C)C)=[N+](CCC(=O)O)c2ccc3ccccc3c21`, the Drug uptake result is recorded as “Active”.
As to `CC1(C)C(/C=C/C=C/C=C/C=C2/N(CCC(=O)NCCCC[C@@H]3NC(=O)[C@@H](Cc4ccccc4)NC(=O)[C@H](CC(=O)O)NC(=O)CNC(=O)[C@H](CCCNC(=N)N)NC3=O)c3ccc4ccccc4c3C2(C)C)=[N+](CCC(=O)O)c2ccc3ccccc3c21`, the Drug uptake result is “Active”.

A further data set deals with Integrin alpha-V/beta-3 (Homo sapiens, UniProt P05106+P06756). As to the kind of experiment: Displacement of [125I]echistatin from human integrin […] expressed in human A549 cells by binding assay. The class given is cell-based.
Sequence of Integrin alpha-V/beta-3 (P05106 27-788 limits assumed): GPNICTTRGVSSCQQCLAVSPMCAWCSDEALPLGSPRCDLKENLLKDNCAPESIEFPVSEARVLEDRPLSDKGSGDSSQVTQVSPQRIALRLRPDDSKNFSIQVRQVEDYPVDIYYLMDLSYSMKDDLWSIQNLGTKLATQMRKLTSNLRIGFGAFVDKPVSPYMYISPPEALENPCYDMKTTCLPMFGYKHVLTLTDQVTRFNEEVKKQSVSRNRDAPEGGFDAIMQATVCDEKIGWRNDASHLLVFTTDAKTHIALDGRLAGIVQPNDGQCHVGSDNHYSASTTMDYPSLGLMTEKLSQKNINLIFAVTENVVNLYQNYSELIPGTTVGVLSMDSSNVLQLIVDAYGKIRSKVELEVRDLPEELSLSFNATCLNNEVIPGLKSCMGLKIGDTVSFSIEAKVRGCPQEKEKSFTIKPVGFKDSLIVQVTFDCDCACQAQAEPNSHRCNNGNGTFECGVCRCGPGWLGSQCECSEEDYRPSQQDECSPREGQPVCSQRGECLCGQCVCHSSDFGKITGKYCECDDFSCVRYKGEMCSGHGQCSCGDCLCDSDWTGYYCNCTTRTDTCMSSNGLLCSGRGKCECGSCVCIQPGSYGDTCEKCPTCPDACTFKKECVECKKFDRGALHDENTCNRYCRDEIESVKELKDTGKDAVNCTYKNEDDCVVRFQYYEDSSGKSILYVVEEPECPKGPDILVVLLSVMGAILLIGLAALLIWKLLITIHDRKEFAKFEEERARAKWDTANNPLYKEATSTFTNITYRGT
Sequence of Integrin alpha-V/beta-3 (P06756 31-889 limits assumed): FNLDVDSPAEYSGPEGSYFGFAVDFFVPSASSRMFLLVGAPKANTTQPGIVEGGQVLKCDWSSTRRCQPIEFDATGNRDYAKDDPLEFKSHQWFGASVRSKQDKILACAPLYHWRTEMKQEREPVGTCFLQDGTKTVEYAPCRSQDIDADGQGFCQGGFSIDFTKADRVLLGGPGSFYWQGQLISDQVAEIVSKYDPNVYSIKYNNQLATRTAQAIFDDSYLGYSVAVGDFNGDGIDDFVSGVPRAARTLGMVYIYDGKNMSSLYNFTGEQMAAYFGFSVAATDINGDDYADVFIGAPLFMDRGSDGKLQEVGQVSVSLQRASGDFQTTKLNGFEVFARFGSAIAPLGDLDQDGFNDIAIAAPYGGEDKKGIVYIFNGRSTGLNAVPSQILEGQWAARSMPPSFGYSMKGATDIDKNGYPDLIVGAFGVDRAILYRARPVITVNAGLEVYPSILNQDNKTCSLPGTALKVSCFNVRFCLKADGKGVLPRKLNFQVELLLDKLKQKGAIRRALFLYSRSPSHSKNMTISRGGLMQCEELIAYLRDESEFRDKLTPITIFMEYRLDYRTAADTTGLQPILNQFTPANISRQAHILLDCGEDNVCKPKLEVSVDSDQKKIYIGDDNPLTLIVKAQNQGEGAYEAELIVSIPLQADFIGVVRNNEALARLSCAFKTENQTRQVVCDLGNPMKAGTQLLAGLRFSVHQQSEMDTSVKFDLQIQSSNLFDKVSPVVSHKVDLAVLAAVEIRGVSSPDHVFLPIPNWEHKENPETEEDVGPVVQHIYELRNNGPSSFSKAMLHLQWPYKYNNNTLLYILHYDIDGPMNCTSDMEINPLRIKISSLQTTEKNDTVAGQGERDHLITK
Sequence of Integrin alpha-V/beta-3 (P06756 891-1048 limits assumed): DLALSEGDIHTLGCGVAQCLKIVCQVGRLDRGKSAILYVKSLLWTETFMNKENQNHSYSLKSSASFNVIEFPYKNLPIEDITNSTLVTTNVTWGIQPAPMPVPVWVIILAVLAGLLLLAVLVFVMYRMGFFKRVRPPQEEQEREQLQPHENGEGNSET
Details: not given
For orientation: In a radioligand displacement assay an active substance lowers the binding of a labelled ligand.
Compound `CC1(C)C(/C=C/C=C/C=C/C=C2/N(CCC(=O)N[C@H]3CSSC[C@@H](C(N)=O)NC(=O)[C@H](CC(=O)O)NC(=O)[C@H](Cc4ccc(O)cc4)NC(=O)[C@H](CCCNC(=N)N)NC3=O)c3ccc4ccccc4c3C2(C)C)=[N+](CCC(=O)O)c2ccc3ccccc3c21` (Cypate-CRYDC-NH2; disulfide 1-5) had an IC50 greater than 10 µM.
The same measure, in the same setting: then `CC(C)[C@@H]1NC(=O)[C@H](CCCNC(=N)N)NC(=O)[C@@H](NC(=O)CCN2/C(=C/C=C/C=C/C=C/C3=[N+](CCC(=O)O)c4ccc5ccccc5c4C3(C)C)C(C)(C)c3c2ccc2ccccc32)CSSC[C@@H](C(N)=O)NC(=O)[C@H](CC(=O)O)NC1=O` (Cypate-CRVDC-NH2; disulfide 1-5), with greater than 10 µM; and `CC1(C)C(/C=C/C=C/C=C/C=C2/N(CCC(=O)N[C@H]3CSSC[C@@H](C(N)=O)NC(=O)[C@H](CC(=O)O)NC(=O)[C@@H]4CCCN4C(=O)[C@H](CCCNC(=N)N)NC3=O)c3ccc4ccccc4c3C2(C)C)=[N+](CCC(=O)O)c2ccc3ccccc3c21` (Cypate-CRPDC-NH2; disulfide 1-5), with greater than 10 µM; and `CC1(C)C(/C=C/C=C/C=C/C=C2/N(CCC(=O)NCCCC[C@@H]3NC(=O)[C@@H](Cc4ccccc4)NC(=O)[C@H](CC(=O)O)NC(=O)CNC(=O)[C@H](CCCNC(=N)N)NC3=O)c3ccc4ccccc4c3C2(C)C)=[N+](CCC(=O)O)c2ccc3ccccc3c21`, with 0.72 µM.
